Laboratory results published in ChEMBL document CHEMBL1139870, “Structure-guided optimization of small molecules inhibiting human immunodeficiency virus 1 Tat association with the human coactivator p300/CREB binding protein-associated factor” (J Med Chem, 2007).
Calls of active or inactive are those of the source. No cut-off for these calls is given here.

Biological target: Cyclin-dependent kinase inhibitor 1 (Homo sapiens) (UniProt P38936)
Test: Effect on p53-induced p21 transcription in response to DNA damage at 5 uM

Cyclin-dependent kinase inhibitor 1 (Homo sapiens), sequence (P38936 whole entry): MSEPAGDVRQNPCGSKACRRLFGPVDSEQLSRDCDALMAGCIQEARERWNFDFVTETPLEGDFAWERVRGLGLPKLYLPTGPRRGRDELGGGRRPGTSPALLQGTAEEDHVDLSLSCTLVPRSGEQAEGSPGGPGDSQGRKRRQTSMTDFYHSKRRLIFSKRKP

CC(Cl)c1ccc(NCCCN)c([N+](=O)[O-])c1 (configuration not stated)
Activity: inactive

Cc1ccc(NCCCN)c([N+](=O)[O-])c1
Activity: inactive
